Literature values, collected in US20120201886A1, “Coated Extended Release Pharmaceutical Compositions Containing Paliperidone” (MICRO LABS LIMITED, priority 2010, published 2012).

## Cc1nc2n(c(=O)c1CCN1CCC(c3noc4cc(F)ccc34)CC1)CCCC2O (racemic) [Paliperidone, (RS)-3-[2-[4-(6-fluorobenzo[d]isoxazol-3-yl)-1-piperidyl]ethyl]-7-hydroxy-4-methyl-1,5-diazabicyclo[4.4.0]deca-3,5-dien-2-one]
0.1 N hydrochloric acid
  solubility in 0.1 N hydrochloric acid: soluble
methanol
  solubility in methanol: soluble
Methylene chloride
  solubility in methylene chloride: freely soluble
water
  solubility in water: practically insoluble
